Measurements reported in patent publication US9879013B2, “Purinone derivative” (ONO PHARMACEUTICAL CO., LTD., priority 2010, dated 2018).

Assays:
Human liver cells [1] = assay: Cytotoxicity in cultured human hepatoma cells (ATP concentration, Celltiter Glo); type: cell-based; conditions: 50% decline in ATP concentration, exposure for 24 hours, read-out: Toxicity for human liver cells (IC50 (μM))
Procedure: (§1) Measurement of the Cytotoxicity and Ability to Reduce the Mitochondrial Membrane Potential in Cultured Human Hepatoma Cells
(§2) Human liver cells were seeded into a collagen-coated 96-well plate at a cell density of 30,000 cells/well and incubation was carried out overnight in an incubator at 37° C. in 5% CO2-95% air. The cultured cells were stained for 1 hour with 5,5′,6,6′-tetrahydro-1,1′,3,3′-tetramethyl-benzamidazolocarbocyanine iodide (JC-1) followed by treatment with the test compound. The test compound was dissolved in DMSO and then diluted with the liquid culture medium Hepatocyte Culture Medium (HCM) and added to the cells. The test compound treatment concentrations were 0, 6.25, 12.5, 25, 50, 100, 200, and 400 μmol/L. After exposure to the test compound for 24 hours, measurement was performed with a SpectraMax plate reader (Molecular Devices, LLC) at an excitation wavelength of 485 nm and a fluorescence wavelength of 538 nm and an excitation wavelength of 544 nm and a fluorescence wavelength of 590 nm. The membrane potential was determined by the ratio between the 544 nm/590 nm measurement value and the 485 nm/538 nm measurement value. After this, the ATP concentration in the cells was measured using a Celltiter Glo luminescent assay kit (Promega Corporation) in order to evaluate the cell toxicity of the test compound. The cells were lysed by the assay buffer provided with the measurement kit and the concentration of the ATP released from the cells was measured using the luciferin-luciferase enzyme activity as the index. The emission was measured using a SpectraMax plate reader. […] The ability to lower the mitochondrial membrane potential of the test compounds and the cytotoxicity of the test compounds are given in Table 3 below.

Human CYP2C19 = Human CYP2C19 (Homo sapiens (Human), UniProt P33261); assay: Inhibitory action on human CYP2C19; type: in vitro ADME
Procedure: (§3) Measurement of the Inhibitory Activity on Drug-Metabolizing Enzymes (Inhibitory Action on Human CYP2C8 and Human CYP2C19)
The reaction was carried out in a 96-well plate. The positive control substances (CYP2C8: ketoconazole, CYP2C19: tranylcypromine) were adjusted (CYP2C8: 0.6 and 6 mmol/L, CYP2C19: 0.9 and 9 mmol/L) with DMSO to concentrations that were 300 times the final concentration, and solutions were prepared (CYP2C8: 8 and 80 μmol/L, CYP2C19: 12 and 120 μmol/L) by 75× dilution with purified water that contained 2.7% acetonitrile. The test compounds were adjusted to […] with DMSO and were adjusted to 4 and 40 μmol/L by 75× dilution with purified water that contained 2.7% acetonitrile. A reaction mixture was then prepared (the numerical values are final concentrations) by the addition of potassium phosphate buffer (pH 7.4), magnesium chloride ([…]), substrate (CYP2C8: dibenzylfluorescein 1 μmol/L, CYP2C19: 3-cyano-7-ethoxycoumarin 25 μmol/L), and E. coli-expressed liver microsome CYP2C8 (Cypex, 10 pmol/L) and CYP2C19 (Cypex, 3 pmol/L). 100 μL of this reaction mixture and 50 μL of the test compound prepared as described above and the positive control solution prepared as described above were dispensed into each well and pre-incubation was carried out at 10 minutes for 37° C. The reaction was started by the addition of 50 μL NADPH solution (final concentration=1 mmol/L) and incubation was carried out for 30 minutes at 37° C. The fluorescence intensity was measured (CYP2C8: excitation wavelength=485 nm, fluorescence wavelength=538 nm; CYP2C19: excitation wavelength=409 nm, fluorescence wavelength=460 nm) immediately after the addition of the NADPH and after incubation for 30 minutes.

Human liver cells [2] = assay: Ability to reduce the mitochondrial membrane potential in cultured human hepatoma cells (JC-1); type: cell-based; conditions: JC-1, exposure for 24 hours, read-out: Ability to lower the mitochondrial membrane potential (IC50 (μM))
Excerpt: as §1
Tissue that maintains an aerobic equilibrium, e.g., the kidneys and heart, and tissue that is exposed to high drug concentrations and carries out drug metabolism, e.g., the liver, are known to be sensitive to mitochondrial dysfunction (Drug Discovery Today, 12 (17-18), 777-785, 2007). The reduction or extinction of the mitochondrial membrane potential by a drug is caused by the direct inhibition of the electron transport system, decoupling of electron transport from ATP synthase, or the opening of a mitochondrial membrane permeability transition pore. As a consequence, measurement of the mitochondrial membrane potential of liver cells can provide a parameter for hepatotoxicity.
as §2

[3] = Stability in the rat liver microsome; conditions: 0.5 mg/mL microsomes, NADPH, 15 minutes at 37° C.
Procedure: (§7) Evaluation of the Stability in the Rat and Human Liver Microsome
(§8) A 0.25 mmol/L solution was prepared by diluting the test compound (10 mmol/L DMSO solution, 5 μL) with an aqueous 50% acetonitrile solution (195 μL).
(§9) 20 μL was collected immediately after the start and the reaction was stopped by the addition to 180 μL of acetonitrile that contained an internal standard (warfarin). 20 μL of this solution was stirred with 180 μL of an aqueous 50% acetonitrile solution on a filter plate for protein depletion followed by suction filtration, and the filtrate was used as the standard sample.
(§10) The previously indicated reaction solution was incubated for 15 minutes at 37° C., and 20 μL was then added to 180 μL cold acetonitrile (contained the internal standard warfarin) to stop the reaction. 20 μL of this was stirred with 180 μL of an aqueous 50% acetonitrile solution on a filter plate for protein depletion followed by suction filtration, and the filtrate was used as the standard sample.

Human CYP2C8 = Human CYP2C8 (Homo sapiens (Human), UniProt P10632); assay: Inhibitory action on human CYP2C8; type: in vitro ADME
Procedure: as §3
The reaction was carried out in a 96-well plate. […] 100 μL of this reaction mixture and 50 μL of the test compound prepared as described above and the positive control solution prepared as described above were dispensed into each well and pre-incubation was carried out at 10 minutes for 37° C. The reaction was started by the addition of 50 μL NADPH solution (final concentration=1 mmol/L) and incubation was carried out for 30 minutes at 37° C.

[4] = Stability in the human liver microsome; conditions: 0.5 mg/mL microsomes, NADPH, 15 minutes at 37° C.
Procedure: as §7, §8, §9, §10

Btk = Btk (Homo sapiens (Human), UniProt Q06187); assay: Btk enzyme inhibitory activity (Z'-LYTE Kinase Assay Kit-Tyr1 peptide); type: biochemical; conditions: Tyr-1 peptide 4 μM, Btk 5 nM, ATP 36 μM, 1 hour at 30° C.
Procedure: The Btk enzyme inhibitory activity was measured, based on the protocol provided by the manufacturer, using Btk (Invitrogen Corporation) and the Z′-LYTE® Kinase Assay Kit-Tyr1 peptide (Invitrogen Corporation), which contained the following reagents: Tyr-1 peptide, Thy-1 phosphopeptide, 5× kinase buffer, ATP, development reagent B, development buffer, and stop reagent.
5 μL/well of a solution of the test compound diluted with dimethyl sulfoxide (DMSO), or DMSO, and 10 μL/well of the substrate/enzyme mixture solution were dispensed to a 96-well assay plate and a reaction was carried out for 20 minutes at 30° C. […] The enzymatic reaction was then stopped by adding 10 μL of the stop solution.
The percent inhibition (%) by the test compound was calculated using the following equation. percent inhibition (%) of phosphorylation=1−{(AC−AX)/(AC−AB)}×100 [E1]

Lck = Lck (Homo sapiens (Human), UniProt P06239); assay: Lck inhibitory activity, selectivity for Btk (Z'-LYTE kinase assay); type: biochemical; conditions: ratio of the IC50 values of the individual kinases
Procedure: (§4) The inhibitory activity for other kinases (for example, Lck, Fyn, and LynA (all from Invitrogen Corporation) was measured in the same manner as described above using the particular kinase in place of the Btk.

LynA = LynA (Homo sapiens (Human), UniProt P07948); assay: LynA inhibitory activity, selectivity for Btk (Z'-LYTE kinase assay); type: biochemical; conditions: ratio of the IC50 values of the individual kinases
Procedure: as §4

Fyn = Fyn (Homo sapiens (Human), UniProt P06241); assay: Fyn inhibitory activity, selectivity for Btk (Z'-LYTE kinase assay); type: biochemical; conditions: ratio of the IC50 values of the individual kinases
Procedure: as §4

[5] = system: T cells (CD3-positive CD20-negative cells) of human PBMC; assay: T cell activation using human PBMC (CD69-positive signal, FACS); type: cell-based; conditions: anti-CD3/CD28 antibody beads, 16 hours
Procedure: (§5) Measurement of B Cell Activation or T Cell Activation Using Human PBMC
(§6) A 10 mmol/L solution of the test compound in DMSO was dispensed into a 96-well plate (Nunc) and a 5× dilution series was prepared using DMSO. A 100× concentration test compound dilution solution was prepared by an additional 10× dilution with RPMI1640 medium (contained 10% HI-FBS, 1% penicillin). Human peripheral blood mononuclear cells (PBMC) were diluted with the medium to provide a density of 2×10^6 cells/mL. 396 μL of the cell suspension was added to a 96-well plate into which 4 μL of the 100× concentration test compound dilution solution or the solvent (10% DMSO) had already been introduced and incubation was performed for 10 minutes at 37° C. and 5% CO2. 10 μL of an anti-IgM antibody (Southern Biotech)/IL-4 (R & D Systems) solution or an anti-CD3/CD28 antibody bead suspension (Invitrogen Corporation) was added to a 96-well plate and 90 μL of the cell suspension prepared as described above was also added (final concentrations: anti-IgM antibody=1 μg/mL, IL-4=3 ng/mL, and anti-CD3/CD28 antibody beads=2×10^6 beads/mL). 10 μL of the medium was added to the unstimulated sample wells in place of these stimulating substances, and standing at 37° C. and 5% CO2 was again performed. Incubation was carried out for 16 hours in the case of the evaluation of T cell activation and for 22 hours in the case of the evaluation of B cell activation. 100 μL Cytofix Buffer (BD Biosciences) was added; holding for 15 minutes at 37° C. was performed; centrifugation for 10 minutes at 1500 rpm was carried out; and the supernatant was removed. 200 μL of Perm buffer II (BD Biosciences) at −20° C. was added; holding for 30 minutes on ice was performed; centrifugation for 10 minutes at 1500 rpm was carried out; and the supernatant was removed. 0.5 mL Stain buffer (BD Biosciences) was added and centrifugation was carried out for 10 minutes at 1500 rpm. 100 μL of a mixed antibody solution was added and incubation was performed for 30 minutes on ice in the dark. The antibody was the 10× dilution with Stain Buffer of the 1:1:1 mixture of PerCP-labeled anti-CD3 antibody (BD Biosciences), AF488-labeled anti-CD20 antibody (BD Biosciences), and PE-labeled anti-CD69 antibody (BD Biosciences). 0.4 mL Stain Buffer was added and the supernatant was removed. […] The CD69-positive signal (average fluorescence intensity) of the CD20-positive CD3-negative cells (B cells) or CD3-positive CD20-negative cells (T cells) was measured. After subtracting the value for the unstimulated sample, the % inhibition with reference to the value for the stimulated control sample was determined. The % inhibition was graphically plotted using Prism (ver. 5.01 J, GraphPad Software) and the IC50 value was determined.

[6] = system: B cells (CD20-positive CD3-negative cells) of human PBMC; assay: B cell activation using human PBMC (CD69-positive signal, FACS); type: cell-based; conditions: anti-IgM antibody 1 μg/mL / IL-4 3 ng/mL, 22 hours
Procedure: as §5, §6

Human CYP2C19, sequence (P33261 whole entry): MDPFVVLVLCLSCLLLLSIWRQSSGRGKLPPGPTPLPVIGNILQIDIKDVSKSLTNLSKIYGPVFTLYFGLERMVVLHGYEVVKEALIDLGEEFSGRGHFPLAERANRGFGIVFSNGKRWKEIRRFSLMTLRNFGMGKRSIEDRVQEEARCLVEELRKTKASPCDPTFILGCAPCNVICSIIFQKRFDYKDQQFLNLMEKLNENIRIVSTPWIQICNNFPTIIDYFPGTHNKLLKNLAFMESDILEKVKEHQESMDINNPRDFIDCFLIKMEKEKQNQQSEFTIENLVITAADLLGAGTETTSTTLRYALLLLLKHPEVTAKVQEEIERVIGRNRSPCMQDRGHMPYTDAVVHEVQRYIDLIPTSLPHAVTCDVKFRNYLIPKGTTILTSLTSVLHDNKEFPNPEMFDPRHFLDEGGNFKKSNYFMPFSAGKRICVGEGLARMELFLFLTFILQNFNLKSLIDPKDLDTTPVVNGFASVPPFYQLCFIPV
Human CYP2C8, sequence (P10632 whole entry): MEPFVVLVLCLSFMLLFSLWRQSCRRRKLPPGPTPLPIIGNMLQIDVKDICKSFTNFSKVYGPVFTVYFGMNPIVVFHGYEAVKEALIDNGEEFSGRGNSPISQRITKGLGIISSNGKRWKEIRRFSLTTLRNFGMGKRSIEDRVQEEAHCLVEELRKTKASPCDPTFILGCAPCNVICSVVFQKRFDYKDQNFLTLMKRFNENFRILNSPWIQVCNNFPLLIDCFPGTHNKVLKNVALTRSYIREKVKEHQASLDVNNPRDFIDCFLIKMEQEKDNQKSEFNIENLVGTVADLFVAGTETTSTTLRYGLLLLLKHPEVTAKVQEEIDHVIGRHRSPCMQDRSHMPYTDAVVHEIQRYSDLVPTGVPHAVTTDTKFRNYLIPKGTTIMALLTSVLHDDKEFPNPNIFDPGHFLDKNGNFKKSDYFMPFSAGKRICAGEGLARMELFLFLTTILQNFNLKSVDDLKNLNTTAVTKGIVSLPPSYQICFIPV
Btk, sequence (Q06187 whole entry): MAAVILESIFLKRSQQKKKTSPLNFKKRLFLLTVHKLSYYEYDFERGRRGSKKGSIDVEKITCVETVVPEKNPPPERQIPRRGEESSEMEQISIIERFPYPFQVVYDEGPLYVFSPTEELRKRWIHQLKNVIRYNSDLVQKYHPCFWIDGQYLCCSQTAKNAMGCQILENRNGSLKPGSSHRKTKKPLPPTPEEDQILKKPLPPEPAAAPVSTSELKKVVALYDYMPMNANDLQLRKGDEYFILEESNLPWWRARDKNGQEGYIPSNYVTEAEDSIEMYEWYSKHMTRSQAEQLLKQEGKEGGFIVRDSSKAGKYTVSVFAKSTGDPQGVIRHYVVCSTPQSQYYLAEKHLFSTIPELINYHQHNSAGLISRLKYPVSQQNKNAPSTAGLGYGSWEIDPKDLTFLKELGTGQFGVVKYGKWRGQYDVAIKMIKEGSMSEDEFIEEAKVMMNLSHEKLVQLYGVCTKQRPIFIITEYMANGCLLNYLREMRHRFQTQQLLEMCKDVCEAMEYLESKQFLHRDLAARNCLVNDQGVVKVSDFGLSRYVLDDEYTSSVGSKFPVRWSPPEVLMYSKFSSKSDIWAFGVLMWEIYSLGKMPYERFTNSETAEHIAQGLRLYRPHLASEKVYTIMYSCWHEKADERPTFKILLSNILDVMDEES
Fyn, sequence (P06241 whole entry): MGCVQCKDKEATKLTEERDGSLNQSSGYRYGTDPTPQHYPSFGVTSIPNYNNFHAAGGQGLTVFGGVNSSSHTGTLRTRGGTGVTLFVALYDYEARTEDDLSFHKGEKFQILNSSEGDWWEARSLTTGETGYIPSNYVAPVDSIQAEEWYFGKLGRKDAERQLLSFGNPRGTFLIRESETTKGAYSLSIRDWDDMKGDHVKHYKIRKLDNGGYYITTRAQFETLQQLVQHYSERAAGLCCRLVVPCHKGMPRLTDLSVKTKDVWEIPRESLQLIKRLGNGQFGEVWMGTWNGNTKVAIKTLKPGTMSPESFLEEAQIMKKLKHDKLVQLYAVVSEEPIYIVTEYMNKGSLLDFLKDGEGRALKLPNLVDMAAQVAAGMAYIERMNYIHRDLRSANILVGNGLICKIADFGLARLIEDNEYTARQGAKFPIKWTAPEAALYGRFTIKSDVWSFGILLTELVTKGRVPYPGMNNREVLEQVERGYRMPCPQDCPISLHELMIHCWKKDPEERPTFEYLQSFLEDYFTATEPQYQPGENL
LynA, sequence (P07948 whole entry): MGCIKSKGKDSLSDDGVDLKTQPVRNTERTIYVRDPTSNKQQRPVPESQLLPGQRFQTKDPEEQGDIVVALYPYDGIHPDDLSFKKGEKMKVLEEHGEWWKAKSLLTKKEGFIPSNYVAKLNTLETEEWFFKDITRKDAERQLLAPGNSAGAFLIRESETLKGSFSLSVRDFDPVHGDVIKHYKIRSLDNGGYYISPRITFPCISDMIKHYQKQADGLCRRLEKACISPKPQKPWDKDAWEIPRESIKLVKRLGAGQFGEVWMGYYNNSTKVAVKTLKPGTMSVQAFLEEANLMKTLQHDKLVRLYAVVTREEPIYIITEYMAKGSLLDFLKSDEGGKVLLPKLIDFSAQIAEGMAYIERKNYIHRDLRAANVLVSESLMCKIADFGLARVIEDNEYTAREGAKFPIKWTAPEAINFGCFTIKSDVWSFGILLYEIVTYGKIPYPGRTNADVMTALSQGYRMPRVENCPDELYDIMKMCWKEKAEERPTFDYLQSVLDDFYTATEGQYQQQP
Lck, sequence (P06239 whole entry): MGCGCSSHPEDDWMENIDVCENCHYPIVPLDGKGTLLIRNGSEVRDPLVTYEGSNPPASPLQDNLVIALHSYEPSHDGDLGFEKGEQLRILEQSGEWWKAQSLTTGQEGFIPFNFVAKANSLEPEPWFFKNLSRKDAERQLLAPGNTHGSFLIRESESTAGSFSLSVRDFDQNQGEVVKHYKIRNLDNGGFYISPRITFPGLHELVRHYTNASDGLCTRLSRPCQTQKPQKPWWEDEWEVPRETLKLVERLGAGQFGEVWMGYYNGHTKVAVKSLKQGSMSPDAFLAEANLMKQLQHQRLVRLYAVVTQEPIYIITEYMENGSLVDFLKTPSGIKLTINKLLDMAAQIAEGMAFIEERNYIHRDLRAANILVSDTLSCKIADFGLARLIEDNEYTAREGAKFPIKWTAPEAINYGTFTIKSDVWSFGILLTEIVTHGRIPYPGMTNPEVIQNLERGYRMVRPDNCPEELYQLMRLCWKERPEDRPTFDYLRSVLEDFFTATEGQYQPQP

| IC50 (Human CYP2C19) [µM] | IC50 (Human liver cells [2]) [µM] | Residual ratio (%) in the rat liver microsome [3] [%] | IC50 (Human CYP2C8) [µM] | Residual ratio (%) in the human liver microsome [4] [%] | IC50 (Btk) [µM] | Lck[IC50]/Btk[IC50] (Lck) | LynA[IC50]/Btk[IC50] (LynA) | Fyn[IC50]/Btk[IC50] (Fyn) | Compound | IC50 (Human liver cells [1]) [µM] | IC50 [5] [µM] | IC50 [6] [µM] |
| --- | --- | --- | --- | --- | --- | --- | --- | --- | --- | --- | --- | --- |
| – | 347 | 88.5 | – | 100 | – | – | – | – | CN(C)C/C=C/C(=O)N1CCC(n2c(=O)n(-c3ccc(Oc4ccccc4)cc3)c3c(N)ncnc32)C1 (centres unmarked) [Example 11(24), 6-amino-9-{1-[(2E)-4-(dimethylamino)-2-butenoyl]-3-pyrrolidinyl}-7-(4-phenoxyphenyl)-7,9-dihydro-8H-purin-8-one] | 213 | – | – |
| > 10 | 200 | – | > 10 | – | – | – | – | – | CC#CC(=O)N1CC[C@@H](n2c(=O)n(-c3ccc(Oc4ccccc4)cc3)c3c(N)ncnc32)C1 [Example 19(2), 6-amino-9-[(3R)-1-(2-butynoyl)-3-pyrrolidinyl]-7-(4-phenoxyphenyl)-7,9-dihydro-8H-purin-8-one] | 135 | > 10 | 0.061 |
| – | 181 | – | – | – | – | – | – | – | CC#CC(=O)N1CCC(n2c(=O)n(-c3ccc(Oc4ccccc4)cc3)c3c(N)ncnc32)C1 (centres unmarked) [Example 19(9), 6-amino-9-[1-(2-butynoyl)-3-pyrrolidinyl]-7-(4-phenoxyphenyl)-7,9-dihydro-8H-purin-8-one] | 97 | – | – |
| – | – | – | – | – | 0.011 | – | – | – | CC#CC(=O)N1CC[C@@H](n2c(=O)n(-c3ccc(C(=O)c4ccccc4)cc3)c3c(N)ncnc32)C1 [Example 19(40), 6-amino-7-(4-benzoylphenyl)-9-[(3R)-1-(2-butynoyl)-3-pyrrolidinyl]-7,9-dihydro-8H-purin-8-one] | – | – | – |

The remaining lines, values behind:

| Compound | IC50 (Human CYP2C19) [µM] | IC50 (Human liver cells [2]) [µM] | Residual ratio (%) in the rat liver microsome [3] [%] | IC50 (Human CYP2C8) [µM] | Residual ratio (%) in the human liver microsome [4] [%] | IC50 (Btk) [µM] | Lck[IC50]/Btk[IC50] (Lck) | LynA[IC50]/Btk[IC50] (LynA) | Fyn[IC50]/Btk[IC50] (Fyn) | IC50 (Human liver cells [1]) [µM] | IC50 [5] [µM] | IC50 [6] [µM] |
| --- | --- | --- | --- | --- | --- | --- | --- | --- | --- | --- | --- | --- |
| C=CC(=O)N1CCC[C@@H](n2nc(-c3ccc(Oc4ccccc4)cc3)c3c(N)ncnc32)C1 [Comparative compound A, reference compound] | 5.6 | 39 | – | – | – | – | – | – | – | 78 | – | – |
| C#CC(=O)N1CCC(n2nc(-c3ccc(Oc4ccccc4)cc3)c3c(N)ncnc32)C1 (centres unmarked) [Comparative compound B, reference compound] | 8.1 | < 6.25 | 50.6 | 6.9 | 55.9 | – | – | – | – | < 6.25 | – | – |
| C=CC(=O)N1CCC(Cn2c(=O)n(-c3ccc(Oc4ccccc4)cc3)c3c(N)ncnc32)CC1 [Example 8(14), 9-[(1-acryloyl-4-piperidinyl)methyl]-6-amino-7-(4-phenoxyphenyl)-7,9-dihydro-8H-purin-8-one] | > 10 | – | – | > 10 | – | 0.004 | 220 | 1767 | 2500 | – | > 10 | 0.023 |
| CN(C)C/C=C/C(=O)N1CC[C@@H](n2c(=O)n(-c3ccc(Oc4ccccc4)cc3)c3c(N)ncnc32)C1 [Example 11(3), 6-amino-9-{(3R)-1-[(2E)-4-(dimethylamino)-2-butenoyl]-3-pyrrolidinyl}-7-(4-phenoxyphenyl)-7,9-dihydro-8H-purin-8-one] | > 10 | – | – | > 10 | – | 0.014 | 19 | 143 | 236 | – | > 10 | 0.032 |
